From patent US8445477B2, “Azetidinyl diamides as monoacylglycerol lipase inhibitors” (Janssen Pharmaceutica, NV, priority 2009, dated 2013) come the findings set out here.

For assay [1], the system named is CFA-induced thermal hypersensitivity of the rat hind paw. The assay is described as follows: CFA-Induced Paw Radiant Heat Hypersensitivity. In kind it is in vivo. Particulars: 30 mg/kg p.o., HPβCD, group mean values, maximum at any time point up to 180 or 300 min. The procedure: Each rat was placed in a test chamber on a warm glass surface and allowed to acclimate for approximately 10 min. A radiant thermal stimulus (beam of light) was then focused through the glass onto the plantar surface of each hind paw in turn. The thermal stimulus was automatically shut off by a photoelectric relay when the paw was moved or when the cut-off time was reached (20 sec for radiant heat at ˜5 amps). An initial (baseline) response latency to the thermal stimulus was recorded for each animal prior to the injection of complete Freund's adjuvant (CFA). 24 h following intraplantar CFA injection, the response latency of the animal to the thermal stimulus was then re-evaluated and compared to the animal's baseline response time. […] Post-compound treatment withdrawal latencies were assessed at fixed time intervals, typically 30, 60, 120, 180, and 300 min.
The percent reversal (% R) of hypersensitivity was calculated in one of two different ways: 1) using group mean values or 2) using individual animal values. […]
Method 1. For all compounds, the % R of hypersensitivity was calculated using the mean value for groups of animals at each time point according to the following formula: % reversal=[(group treatment response−group CFA response)/(group baseline response−group CFA response)]×100 Results are given for the maximum % reversal observed for each compound at any time point tested. […]

Assay [2] has as its target T1, MGL in rat brain homogenate (Rattus norvegicus, UniProt Q8R431).
T1 construct: one g rat brain was homogenized; from tissue; host or cells: rat brain homogenate
T1 sequence (Q8R431 1-303): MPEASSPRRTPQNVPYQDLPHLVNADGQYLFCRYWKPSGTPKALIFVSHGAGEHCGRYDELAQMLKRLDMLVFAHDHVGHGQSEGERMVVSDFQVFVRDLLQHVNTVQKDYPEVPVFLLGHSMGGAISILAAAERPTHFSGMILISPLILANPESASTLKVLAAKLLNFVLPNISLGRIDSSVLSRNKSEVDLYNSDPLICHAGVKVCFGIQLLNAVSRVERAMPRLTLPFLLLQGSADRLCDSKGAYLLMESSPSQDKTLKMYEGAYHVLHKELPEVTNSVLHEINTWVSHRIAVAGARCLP
Kind of assay: 2-AG Accumulation Assay (rat brain homogenate). In kind it is biochemical. The note with it: compound 1 μM, percent vehicle = 2-AG accumulation with compound / vehicle ×100, read-out: Rat Brain 2AG % VehCntrl (%) @ 1 μM.

Turning to `O=C(c1ccc(-c2cccc(C(F)(F)F)c2)c(Cl)c1)N1CC(N2CCN(C(=O)c3cscn3)CC2)C1` [Cpd 1102], in assay [1], the “Method 1: peak % reversal” value was found to be 38%. For `O=C(c1ccc2c(ccn2-c2ncc(C(F)(F)F)cc2Cl)c1)N1CC(N2CCN(C(=O)c3nccs3)CC2)C1` [Cpd 1116], in assay [2], the activity at 1 µM was found to be 828%.
